Holding throughout (type): biochemical
The target of one assay is T1, FGFR2 (Homo sapiens, UniProt P21802).
T1 construct: purchased Invitrogen PV3368
The assay can be described thus: 33P isotope-labeled kinase activity test (Reaction Biology Corp), wild-type FGFR2. The settings on record: for Selectivity FGFR1/2: ratio of IC50 FGFR1 to IC50 FGFR2; for IC50: wild-type kinase, 33P-ATP 5 μM, substrate pEY + Mn, 120 minutes at room temperature.

The next assay concerns the target T2, FGFR3 (Homo sapiens, UniProt P22607).
T2 construct: purchased Invitrogen PV3145
The experiment in a line: 33P isotope-labeled kinase activity test (Reaction Biology Corp), wild-type FGFR3. The settings on record: for Selectivity FGFR1/3: ratio of IC50 FGFR1 to IC50 FGFR3; for IC50: wild-type kinase, 33P-ATP 30 μM, substrate pEY + Mn, 120 minutes at room temperature.

The next assay has as its target T3, human FGFR1 (Homo sapiens, UniProt P11362).
T3 construct: purchased Invitrogen PV3146
The assay can be described thus: 33P isotope-labeled kinase activity test (Reaction Biology Corp), wild-type FGFR1. The settings on record: 33P-ATP 5 μM, substrate pEY + Mn, 120 minutes at room temperature. The method, then: (§1) The IC50 value is determined using ^33P isotope-labeled kinase activity test (Reaction Biology Corp) to evaluate the inhibitory ability of the compounds to be tested on human FGFR1 and FGFR4.
(§2) Buffer conditions: 20 mM 4-(2-hydroxyethyl)-1-piperazineethanesulfonic acid (Hepes) (pH 7.5), 10 mM MgCl2, 1 mM ethylene glycol-bis-(2-aminoethyl ether)tetraacetic acid (EGTA), 0.02% polyoxyethylene lauryl ether (Brij35), 0.02 mg/ml bovine serum albumin (BSA), 0.1 mM sodium vanadate (Na3VO4), 2 mM dithiothreitol (DTT), and 1% DMSO.
Test steps: At room temperature, the compounds to be tested are dissolved in DMSO to prepare a 10 mM solution for use. The substrate is dissolved in the newly prepared buffer, and the kinase to be tested is added and mixed well. The DMSO solution in which the compounds to be tested are dissolved is added to the above-mentioned homogeneous reaction solution using acoustic technology (Echo 550). […] After incubating for 15 minutes, ^33P-ATP (activity: 0.01 μCi/μl, with corresponding concentration being listed in table 1) is added to start the reaction. The supplier article number, batch number, and the concentration information in the reaction solution of FGFR1, FGFR4 and substrates thereof are listed in table 1. […] The kinase activity data is expressed by comparing the kinase activity of the groups containing the compounds to be tested with that of the blank group (containing only DMSO). The IC50 value is obtained by curve fitting using Prism4 software (GraphPad), and the experimental results are shown in table 2.

The target in another assay is T4, human FGFR4 (Homo sapiens, UniProt P22455).
T4 construct: purchased Invitrogen P3054
T4 sequence (P22455 22-802): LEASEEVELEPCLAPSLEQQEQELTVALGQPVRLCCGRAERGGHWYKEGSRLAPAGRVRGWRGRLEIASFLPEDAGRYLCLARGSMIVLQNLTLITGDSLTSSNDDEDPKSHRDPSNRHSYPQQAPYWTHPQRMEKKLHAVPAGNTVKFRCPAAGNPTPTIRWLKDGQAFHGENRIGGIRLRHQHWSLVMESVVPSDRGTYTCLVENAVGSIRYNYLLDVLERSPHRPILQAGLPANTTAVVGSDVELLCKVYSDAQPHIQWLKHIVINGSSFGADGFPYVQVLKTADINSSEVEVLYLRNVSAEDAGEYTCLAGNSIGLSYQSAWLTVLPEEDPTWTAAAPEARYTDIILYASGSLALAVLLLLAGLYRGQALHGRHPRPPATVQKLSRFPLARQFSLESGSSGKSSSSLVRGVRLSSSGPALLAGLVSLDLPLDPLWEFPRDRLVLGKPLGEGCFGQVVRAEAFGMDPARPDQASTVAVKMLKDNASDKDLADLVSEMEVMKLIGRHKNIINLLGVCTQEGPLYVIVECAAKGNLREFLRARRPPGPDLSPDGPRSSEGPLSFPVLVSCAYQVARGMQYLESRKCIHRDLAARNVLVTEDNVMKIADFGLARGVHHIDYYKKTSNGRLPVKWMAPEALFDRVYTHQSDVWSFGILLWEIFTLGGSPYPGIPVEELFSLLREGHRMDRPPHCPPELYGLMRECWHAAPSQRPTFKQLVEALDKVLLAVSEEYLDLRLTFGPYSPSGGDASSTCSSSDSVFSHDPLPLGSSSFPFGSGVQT
The experiment in a line: 33P isotope-labeled kinase activity test (Reaction Biology Corp), wild-type FGFR4. The settings on record: 33P-ATP 2.5 μM, substrate pEY + Mn, 120 minutes at room temperature. As for the experimental part: as §1, §2
Test steps: At room temperature, the compounds to be tested are dissolved in DMSO to prepare a 10 mM solution for use. The substrate is dissolved in the newly prepared buffer, and the kinase to be tested is added and mixed well. The DMSO solution in which the compounds to be tested are dissolved is added to the above-mentioned homogeneous reaction solution using acoustic technology (Echo 550). […] After incubating for 15 minutes, ^33P-ATP (activity: 0.01 μCi/μl, with corresponding concentration being listed in table 1) is added to start the reaction. The supplier article number, batch number, and the concentration information in the reaction solution of FGFR1, FGFR4 and substrates thereof are listed in table 1. After the reaction is carried out at room temperature for 120 minutes, the reaction solution is spotted on P81 ion exchange filter paper (Whatman #3698-915). After the filter paper is repeatedly washed with 0.75% phosphoric acid solution, the radioactivity of the phosphorylated substrate remaining on the filter paper is measured. The kinase activity data is expressed by comparing the kinase activity of the groups containing the compounds to be tested with that of the blank group (containing only DMSO). The IC50 value is obtained by curve fitting using Prism4 software (GraphPad), and the experimental results are shown in table 2.

Structures can show the parent of a compound that is named as a salt.

T1 sequence (P21802 22-821): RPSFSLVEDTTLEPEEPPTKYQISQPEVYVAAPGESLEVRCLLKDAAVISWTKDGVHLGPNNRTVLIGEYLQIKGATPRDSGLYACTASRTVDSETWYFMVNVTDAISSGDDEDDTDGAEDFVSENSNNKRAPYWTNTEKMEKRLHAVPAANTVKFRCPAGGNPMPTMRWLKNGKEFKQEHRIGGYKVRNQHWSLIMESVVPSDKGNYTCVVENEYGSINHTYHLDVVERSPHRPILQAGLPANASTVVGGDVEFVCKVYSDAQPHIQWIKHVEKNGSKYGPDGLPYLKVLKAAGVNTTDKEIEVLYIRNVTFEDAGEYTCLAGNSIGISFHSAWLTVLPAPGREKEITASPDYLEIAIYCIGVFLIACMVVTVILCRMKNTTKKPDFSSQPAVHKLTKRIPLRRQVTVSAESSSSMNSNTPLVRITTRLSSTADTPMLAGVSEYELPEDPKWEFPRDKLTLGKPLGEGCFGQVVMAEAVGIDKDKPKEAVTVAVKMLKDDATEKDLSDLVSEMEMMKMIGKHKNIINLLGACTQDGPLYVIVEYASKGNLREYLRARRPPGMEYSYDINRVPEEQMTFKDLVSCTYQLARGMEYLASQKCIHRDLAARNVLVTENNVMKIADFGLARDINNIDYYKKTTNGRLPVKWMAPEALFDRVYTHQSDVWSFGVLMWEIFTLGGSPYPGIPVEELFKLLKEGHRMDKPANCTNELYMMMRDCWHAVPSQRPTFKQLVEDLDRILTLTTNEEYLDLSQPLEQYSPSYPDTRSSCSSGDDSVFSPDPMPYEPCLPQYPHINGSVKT
T3 sequence (P11362 22-822): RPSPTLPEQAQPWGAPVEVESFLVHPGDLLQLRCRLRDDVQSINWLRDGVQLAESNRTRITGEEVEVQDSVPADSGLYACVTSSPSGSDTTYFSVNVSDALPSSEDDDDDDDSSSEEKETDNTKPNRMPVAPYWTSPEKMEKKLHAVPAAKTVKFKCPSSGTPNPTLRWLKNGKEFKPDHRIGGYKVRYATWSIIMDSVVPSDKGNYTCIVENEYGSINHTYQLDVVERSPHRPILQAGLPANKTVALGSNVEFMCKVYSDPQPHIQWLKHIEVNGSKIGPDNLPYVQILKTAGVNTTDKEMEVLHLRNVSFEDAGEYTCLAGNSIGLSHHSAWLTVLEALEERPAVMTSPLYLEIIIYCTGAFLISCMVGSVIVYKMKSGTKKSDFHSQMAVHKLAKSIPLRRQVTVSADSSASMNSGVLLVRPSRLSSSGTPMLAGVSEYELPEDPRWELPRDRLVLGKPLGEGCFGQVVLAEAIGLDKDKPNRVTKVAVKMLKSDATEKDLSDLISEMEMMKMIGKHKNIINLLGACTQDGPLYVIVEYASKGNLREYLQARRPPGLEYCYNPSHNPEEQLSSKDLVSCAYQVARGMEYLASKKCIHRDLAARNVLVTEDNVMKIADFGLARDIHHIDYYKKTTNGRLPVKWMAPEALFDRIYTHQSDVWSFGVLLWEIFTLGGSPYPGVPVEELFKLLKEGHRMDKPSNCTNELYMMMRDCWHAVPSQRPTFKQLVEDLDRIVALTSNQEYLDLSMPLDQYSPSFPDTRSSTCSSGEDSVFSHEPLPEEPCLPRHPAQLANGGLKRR
T2 sequence (P22607 23-806): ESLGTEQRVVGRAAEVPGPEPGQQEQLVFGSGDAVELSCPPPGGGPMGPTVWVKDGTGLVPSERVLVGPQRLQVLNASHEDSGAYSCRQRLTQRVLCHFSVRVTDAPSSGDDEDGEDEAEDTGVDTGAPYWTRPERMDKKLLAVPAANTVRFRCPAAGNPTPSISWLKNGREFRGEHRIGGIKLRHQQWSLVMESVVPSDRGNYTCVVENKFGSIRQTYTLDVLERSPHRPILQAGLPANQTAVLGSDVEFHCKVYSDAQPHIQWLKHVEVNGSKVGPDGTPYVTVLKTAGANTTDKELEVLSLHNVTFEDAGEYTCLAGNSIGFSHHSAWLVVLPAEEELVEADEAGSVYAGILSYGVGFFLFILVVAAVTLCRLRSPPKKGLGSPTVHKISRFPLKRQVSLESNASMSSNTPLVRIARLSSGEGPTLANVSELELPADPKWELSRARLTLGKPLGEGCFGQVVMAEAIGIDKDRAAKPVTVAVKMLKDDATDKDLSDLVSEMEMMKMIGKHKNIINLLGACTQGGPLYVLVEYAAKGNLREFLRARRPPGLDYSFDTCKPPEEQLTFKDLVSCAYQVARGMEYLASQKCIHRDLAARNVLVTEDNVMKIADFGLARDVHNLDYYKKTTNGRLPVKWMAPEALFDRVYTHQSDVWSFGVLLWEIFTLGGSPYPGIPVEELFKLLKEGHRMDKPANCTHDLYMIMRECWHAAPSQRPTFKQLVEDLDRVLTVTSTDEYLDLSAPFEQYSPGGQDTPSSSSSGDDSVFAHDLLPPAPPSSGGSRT

`COc1cc(OC)cc(-c2nc(-c3nc(-c4cn(CC(O)CC(F)(F)F)nc4C)cnc3N)cn(C)c2=O)c1` (single isomer, unassigned) [compound 0062]: the “Selectivity FGFR1/2” value at FGFR2 is given as 5.47. For the same compound, the half-maximal inhibitory concentration (IC50) was found to be 11.2 nM at FGFR2, 7.33 nM on FGFR3 and 61.6 nM at human FGFR1. Moreover, on FGFR3, the “Selectivity FGFR1/3” value is recorded as 8.40.
With `COc1cc(OC)cc(-c2nc(-c3nc(-c4cn(CC(O)CC(F)(F)F)nc4C)cnc3N)cn(C)c2=O)c1` (single isomer, unassigned) [compound 0063], on FGFR2, the “Selectivity FGFR1/2” value is given as 4.39 and the concentration for half-maximal inhibition (IC50) was determined as 16.1 nM. Moreover, on FGFR3, the “Selectivity FGFR1/3” value is given as 5.78 and the IC50 is 12.3 nM. In addition, the IC50 on human FGFR1 is 70.8 nM.
The matching figures for `COc1cc(OC)cc(-c2nc(-c3nc(-c4cnn(CC(O)CC(F)(F)F)c4C)cnc3N)cn(C)c2=O)c1` (single isomer, unassigned) [compound 0064]: 7.97, 22.7 nM, 11.18, 16.2 nM and 181 nM.
Regarding `COc1cc(OC)cc(-c2nc(-c3nc(-c4cnn(CC(O)CC(F)(F)F)c4C)cnc3N)cn(C)c2=O)c1` (single isomer, unassigned) [compound 0065], at FGFR2, the “Selectivity FGFR1/2” value turned out to be 7.56 and the half-inhibitory concentration (IC50) is 53.9 nM. Besides, on FGFR3, the “Selectivity FGFR1/3” value is 9.01 and the concentration for half-maximal inhibition (IC50) worked out at 45.2 nM. Also, the half-inhibitory concentration (IC50) on human FGFR1 worked out at 407 nM.
In the case of `COc1cc(OC)cc(-c2nc(-c3nc(-c4cn(C)nc4C)cnc3N)cn(C)c2=O)c1` [Hydrochloride salt of 0023], at FGFR2, the “Selectivity FGFR1/2” value was 5.11 and the half-inhibitory concentration (IC50) was 32.1 nM. On FGFR3, the “Selectivity FGFR1/3” value is on record as 5.52 and the IC50 came out at 29.8 nM. Moreover, the IC50 at human FGFR1 was found to be 164 nM.
In the same order, the values of `COc1cc(OC)cc(-c2nc(-c3nc(-c4cnc5c(c4)CC(=O)N5C)cnc3N)cn(C)c2=O)c1` [Hydrochloride salt of 0033] are 7.27, 314 nM, 19.15, 119 nM and 2280 nM.
Take `COc1cc(OC)cc(-c2nc(-c3nc(-c4ccc(C5CCN(C)CC5)nc4)cnc3N)cn(C)c2=O)c1` [Hydrochloride salt of 0036]: at FGFR2, the “Selectivity FGFR1/2” value was determined as 5.31. For the same compound, the concentration for half-maximal inhibition (IC50) at FGFR2 was 2.48 nM; on FGFR3, 1.81 nM; at human FGFR1 it was 13.2 nM; at human FGFR4 it was greater than 10000 nM. Also, the “Selectivity FGFR1/3” value on FGFR3 is 7.28.
For the compound `COc1cc(OC)cc(-c2nc(-c3nc(-c4cn(C5CCN(C)CC5)nc4C)cnc3N)cn(C)c2=O)c1` [Trifluoroacetate salt of 0016], the “Selectivity FGFR1/2” value on FGFR2 is on record as 6.94. In addition, the IC50 at FGFR2 came out at 4.21 nM; on FGFR3, 4.93 nM; on human FGFR1, 29.2 nM; on human FGFR4, 8640 nM. In addition, the “Selectivity FGFR1/3” value at FGFR3 is given as 5.92.
In the case of `COc1cc(OC)cc(-c2nc(-c3nc(-c4cccnc4)cnc3N)cn(C)c2=O)c1` [Trifluoroacetate salt of 0018], on FGFR2, the “Selectivity FGFR1/2” value was determined as 48.27 and the IC50 stood at 15.1 nM. Further, at FGFR3, the “Selectivity FGFR1/3” value stood at 89.67 and the IC50 amounted to 8.11 nM. Moreover, the IC50 on human FGFR1 is 727 nM.
In the same order, the values of `COc1cc(OC)c(F)c(-c2nc(-c3nc(-c4cn(C)nc4C)cnc3N)cn(C)c2=O)c1` [Trifluoroacetate salt of 0029] are 4.14, 0.56 nM, 1.52, 1.54 nM and 2.33 nM.
As to `COc1cc(OC)cc(-c2nc(-c3nc(-c4cnn(C5CCN(C)CC5)c4C)cnc3N)cn(C)c2=O)c1` [Trifluoroacetate salt of 0031], on FGFR2, the “Selectivity FGFR1/2” value was determined as 4.15 and the concentration for half-maximal inhibition (IC50) was determined as 44 nM. For the same compound, at FGFR3, the “Selectivity FGFR1/3” value is given as 6.57 and the IC50 was 27.8 nM. The IC50 on human FGFR1 was 183 nM.
In the same order, the values of `COc1cc(OC)c(Cl)c(-c2nc(-c3nc(-c4ccc(C5CCN(C)CC5)nc4)cnc3N)cn(C)c2=O)c1` [Trifluoroacetate salt of 0060] are 5.78, 0.533 nM, 3.26, 0.944 nM and 3.08 nM.
The matching figures for `COc1cc(OC)cc(-c2nc(-c3nc(-c4cnn(C)c4)cnc3N)cn(C)c2=O)c1` [compound 0017]: 8.95, 8.79 nM, 12.48, 6.31 nM and 78.7 nM.
As to `COc1cc(OC)cc(-c2nc(-c3nc(-c4cn(C5CCNCC5)nc4C)cnc3N)cn(C)c2=O)c1` [compound 0028], the “Selectivity FGFR1/2” value at FGFR2 is listed as 7.05. Besides, the IC50 at FGFR2 was found to be 7.66 nM; on FGFR3, 10.5 nM; on human FGFR1 it was 54 nM. Also, on FGFR3, the “Selectivity FGFR1/3” value is reported as 5.12.
With `COCCN1CCC(n2cc(-c3cnc(N)c(-c4cn(C)c(=O)c(-c5cc(OC)cc(OC)c5)n4)n3)c(C)n2)CC1` [compound 0035], at FGFR2, the “Selectivity FGFR1/2” value was found to be 5.02 and the half-inhibitory concentration (IC50) turned out to be 5.83 nM. On FGFR3, the “Selectivity FGFR1/3” value is 5.81 and the IC50 was 5.04 nM. Also, at human FGFR1, the IC50 is 29.3 nM.
The matching figures for `CCNC(=O)c1ccc(-c2cnc(N)c(-c3cn(C)c(=O)c(-c4cc(OC)cc(OC)c4)n3)n2)cn1` [compound 0038]: greater than 68.4, 146 nM, greater than 978.5, 10.2 nM and greater than 10000 nM.
The matching figures for `COc1cc(OC)cc(-c2nc(-c3nc(-c4cn(CC5(C#N)CC5)nc4C)cnc3N)cn(C)c2=O)c1` [compound 0043]: 4.17, 12.7 nM, 6.63, 7.99 nM and 53 nM.
In the same order, the values of `COc1cc(OC)cc(-c2nc(-c3nc(-c4cn(CCO)nc4C)cnc3N)cn(C)c2=O)c1` [compound 0048] are 4.79, 56.1 nM, 4.65, 57.8 nM and 269 nM.
Turning to `COc1cc(OC)cc(-c2nc(-c3nc(-c4cnn(CCO)c4C)cnc3N)cn(C)c2=O)c1` [compound 0049], on FGFR2, the “Selectivity FGFR1/2” value is 3.07. For the same compound, the IC50 on FGFR2 turned out to be 65.5 nM; on FGFR3 it was 34.3 nM; at human FGFR1, 201 nM. The “Selectivity FGFR1/3” value on FGFR3 is listed as 5.85.
As for `COc1cc(OC)cc(-c2nc(-c3nc(-c4cnn(CC5(C#N)CC5)c4C)cnc3N)cn(C)c2=O)c1` [compound 0051], the “Selectivity FGFR1/2” value at FGFR2 is listed as 4.48. Further, the IC50 on FGFR2 came out at 6.54 nM; at FGFR3 it was 4.11 nM; on human FGFR1, 29.3 nM. In addition, the “Selectivity FGFR1/3” value on FGFR3 stood at 7.12.
The matching figures for `COc1cc(OC)cc(-c2nc(-c3nc(-c4cncc(C)c4)cnc3N)cn(C)c2=O)c1` [compound 0056]: 10.62, 11.9 nM, 10.8 nM, 126 nM and 11.76.
`COc1cc(OC)cc(-c2nc(-c3nc(-c4ccc(C5(C#N)CCC5)nc4)cnc3N)cn(C)c2=O)c1` [compound 0059]: the half-inhibitory concentration (IC50) was 3060 nM on FGFR2, 49.4 nM at FGFR3 and greater than 10000 nM on human FGFR1.

For the origin of these results see patent US11286248B2, “Pyrazine-2(1H)-ketone compound acting as FGFR inhibitor” (ZHANGZHOU PIEN TZE HUANG PHARMACEUTICAL CO., LTD., priority 2018, dated 2022).
